Measured values from patent US20120264231A1, “ASSAY FOR ORAI CALCIUM CHANNEL REGULATORS” (IMMUNE DISEASE INSTITUTE, INC., priority 2009, published 2012).

Tested on: STIM1−/− T cells
Assay: Single-cell [Ca2+]i measurement in STIM1−/− T cells expressing STIM1 fragments
Assay type: cell-based, murine
Details: for constitutive Ca^2+ influx: retroviral expression, Fura-2
Excerpt: To determine the competence of STIM 1 fragments to activate ORAI1 in mammalian cells, Myc-tagged STIM 1^CT and its truncated variants were introduced by retroviral expression into STIM1−/− T cells, and their ability to elevate resting Ca^2+ permeability was examined in cells loaded with Fura-2. As in human Jurkat T cells (Huang, G. N., et al., (2006); supra), expression of the soluble cytoplasmic portion of STIM 1 activated Ca^2+ influx into STIM1−/− murine T cells (FIG. 11). Elevated Ca^2+ permeability was evident in a marked increase in cytoplasmic [Ca^2+] on changing to medium containing 2 mM Ca^2+ after brief exposure to nominally Ca^2+-free medium. […] Retroviral vector alone conferred no constitutive influx above the level in control cells, as previously shown (Oh-hora, M., et al., (2008), supra).
Retroviral expression plasmids encoding mouse STIM 1 and its cytoplasmic fragments (residues 233-685, 233-600, 233-498, or 233-463) were constructed by inserting the corresponding coding sequences between the XhoI and EcoRI sites of the vector pMSCV-CITE-eGFP-PGK-Puro (Clontech), which allows for coexpression of the inserted gene, GFP, and a puromycin resistance gene. GFP expression was used to estimate transducing efficiency.
Primary CD4^+ cells were purified from spleen and lymph nodes of Stim1^f1/f1 CD4-Cre^+ mice using Dynal magnetic beads (Invitrogen) following the manufacturer's instructions. Purified T cells were stimulated with anti-CD3 and anti-CD28, transduced with retroviruses obtained from transfected Phoenix packaging cells, and further expanded in IL-2-containing medium as described (Oh-hora, M., et al., Nat Immunol 9, 432-443 (2008); Ansel, K. M., et al., Nat Immunol 5, 1251-1259 (2004)). The transduction efficiency (>80%) was estimated by evaluating GFP expression using flow cytometry.
Retrovirus-transduced CD4^+ cells isolated from Stim1^f1/f1 CD4-Cre^+ mice were incubated overnight in IL-2 free RPMI medium and loaded with 2 μM Fura-2-acetoxylmethyl ester (Invitrogen) for 45 min at ambient temperature in the dark. T cells were further attached to coverslips precoated with 0.01% poly-L-lysine, mounted to a RC-20 closed-bath flow chamber (Warner Instrument), and bathed in Ringer's solution (155 mM NaCl, 4.5 mM KCl, 2 mM CaCl2, 1 mM MgCl2, 10 mM D-glucose and 5 mM HEPES, pH 7.4). For nominally Ca^2+-free Ringer's solution CaCl2 was replaced with MgCl2. After 5 minutes of equilibration in Ringer's solution, [Ca^2+]i measurement commenced with ˜3 min perfusion of T cells with Ca^2+-free Ringer's solution at ambient temperature, followed by perfusion of Ringer's solution containing 2 mM CaCl2. The cycle was repeated once with final addition of Ringer's solution supplemented with 2 μM LaCl3 to block Ca^2+ flux. Images were acquired using a Zeiss Axiovert S200 epifluorescence microscope and OpenLab imaging analysis software (Improvision). The fluorescence data (F340 nm/F380 nm) were collected every 4 s and analyzed as described (Oh-hora, M., et al., (2008), supra; Feske, S., et al., Nature 441, 179-185 (2006)). In each experiment, for each experimental condition, 50-100 GFP-positive CD4+ T cells were analyzed.

Substance | constitutive Ca^2+ influx | maximum levels of cytoplasmic Ca^2+ (compared with STIM1^CT) | rate of rise of cytoplasmic Ca^2+ (compared with STIM1^CT) | steepest rise of cytoplasmic [Ca^2+] (on changing to medium containing 2 mM Ca^2+)
STIM1 (233-463): truncated mouse STIM1 cytoplasmic fragment, residues 233-463, His-tagged recombinant protein | smaller but very clear constitutive Ca^2+ influx | – | – | –
STIM1 (233-498): truncated mouse STIM1 cytoplasmic fragment, residues 233-498, His-tagged recombinant protein | activated a prominent constitutive Ca^2+ influx | somewhat less than with STIM1^CT | nearly comparable to the rate with STIM 1^CT | –
STIM1^CT: cytoplasmic region of STIM1, mouse residues 233-685, His-tagged recombinant protein expressed in E coli | – | – | – | ~15 nM/s
